# Assay results: patent publication US20240343733A1, “COMPOUNDS FOR TARGETING DEGRADATION OF IRAK4 PROTEINS” (BIOGEN MA INC., priority 2021, published 2024)
# How the values were obtained:
# IRAK4 = target: T1, IRAK4 (Homo sapiens, UniProt Q9NWZ3); assay: IRAK4 Degradation Assay, HiBiT Method; type: cell-based; conditions: 293T cells expressing HiBiT-tagged IRAK4, 6 hours
# T1 construct: 293Tcells expressing HiBiT-tagged IRAK4 were then added into 384-well plates
# T1 sequence (Q9NWZ3 1-460): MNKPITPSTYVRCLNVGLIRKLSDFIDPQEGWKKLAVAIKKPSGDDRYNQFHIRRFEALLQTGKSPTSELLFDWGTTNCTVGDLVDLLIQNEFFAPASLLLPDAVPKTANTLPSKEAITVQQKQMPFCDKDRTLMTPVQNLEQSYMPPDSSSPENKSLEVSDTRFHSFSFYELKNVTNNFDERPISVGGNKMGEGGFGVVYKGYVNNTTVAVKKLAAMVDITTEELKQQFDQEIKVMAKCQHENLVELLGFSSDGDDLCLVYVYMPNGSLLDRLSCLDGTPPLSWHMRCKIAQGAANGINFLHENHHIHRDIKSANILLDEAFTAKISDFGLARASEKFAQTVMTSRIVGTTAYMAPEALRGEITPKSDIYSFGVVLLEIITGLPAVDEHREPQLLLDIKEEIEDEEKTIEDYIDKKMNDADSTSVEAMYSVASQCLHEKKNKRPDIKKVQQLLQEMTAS
# How it was run: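 293T cells with HiBiT knocked in at the C-terminus of endogenous IRAK4, 10,000 per well, treated 6 h at 37 °C with an 11-point half-log series ([…]), in duplicate. Remaining IRAK4 read by Nano-Glo HiBiT lytic luminescence against DMSO-only and media-only controls.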
# IKZF1 = target: T2, IKZF1 (Homo sapiens, UniProt Q13422); assay: IKZF1 Degradation Assay, HiBiT Method; type: cell-based; conditions: NCIH929 cells expressing HiBiT-tagged IKZF1, 6 hours, top concentration 10 μM
# T2 construct: endogenously expressing IKZF1 with HiBiT fusion tag via CRISPR
# T2 sequence (Q96SW2 whole entry partner, the tested form may be a part): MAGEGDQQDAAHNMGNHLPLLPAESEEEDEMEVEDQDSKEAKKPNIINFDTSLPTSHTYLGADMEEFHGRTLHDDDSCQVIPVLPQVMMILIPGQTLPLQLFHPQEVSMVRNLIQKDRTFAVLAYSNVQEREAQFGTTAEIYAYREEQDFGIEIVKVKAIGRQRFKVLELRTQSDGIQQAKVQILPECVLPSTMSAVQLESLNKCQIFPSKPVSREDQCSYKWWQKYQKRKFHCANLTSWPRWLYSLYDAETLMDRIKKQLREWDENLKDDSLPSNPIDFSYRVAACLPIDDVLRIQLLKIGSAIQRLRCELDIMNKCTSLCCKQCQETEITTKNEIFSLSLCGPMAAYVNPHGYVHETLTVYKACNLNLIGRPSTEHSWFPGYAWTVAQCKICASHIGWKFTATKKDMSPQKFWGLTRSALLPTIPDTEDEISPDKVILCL
# T2 sequence (Q16531 whole entry partner, the tested form may be a part): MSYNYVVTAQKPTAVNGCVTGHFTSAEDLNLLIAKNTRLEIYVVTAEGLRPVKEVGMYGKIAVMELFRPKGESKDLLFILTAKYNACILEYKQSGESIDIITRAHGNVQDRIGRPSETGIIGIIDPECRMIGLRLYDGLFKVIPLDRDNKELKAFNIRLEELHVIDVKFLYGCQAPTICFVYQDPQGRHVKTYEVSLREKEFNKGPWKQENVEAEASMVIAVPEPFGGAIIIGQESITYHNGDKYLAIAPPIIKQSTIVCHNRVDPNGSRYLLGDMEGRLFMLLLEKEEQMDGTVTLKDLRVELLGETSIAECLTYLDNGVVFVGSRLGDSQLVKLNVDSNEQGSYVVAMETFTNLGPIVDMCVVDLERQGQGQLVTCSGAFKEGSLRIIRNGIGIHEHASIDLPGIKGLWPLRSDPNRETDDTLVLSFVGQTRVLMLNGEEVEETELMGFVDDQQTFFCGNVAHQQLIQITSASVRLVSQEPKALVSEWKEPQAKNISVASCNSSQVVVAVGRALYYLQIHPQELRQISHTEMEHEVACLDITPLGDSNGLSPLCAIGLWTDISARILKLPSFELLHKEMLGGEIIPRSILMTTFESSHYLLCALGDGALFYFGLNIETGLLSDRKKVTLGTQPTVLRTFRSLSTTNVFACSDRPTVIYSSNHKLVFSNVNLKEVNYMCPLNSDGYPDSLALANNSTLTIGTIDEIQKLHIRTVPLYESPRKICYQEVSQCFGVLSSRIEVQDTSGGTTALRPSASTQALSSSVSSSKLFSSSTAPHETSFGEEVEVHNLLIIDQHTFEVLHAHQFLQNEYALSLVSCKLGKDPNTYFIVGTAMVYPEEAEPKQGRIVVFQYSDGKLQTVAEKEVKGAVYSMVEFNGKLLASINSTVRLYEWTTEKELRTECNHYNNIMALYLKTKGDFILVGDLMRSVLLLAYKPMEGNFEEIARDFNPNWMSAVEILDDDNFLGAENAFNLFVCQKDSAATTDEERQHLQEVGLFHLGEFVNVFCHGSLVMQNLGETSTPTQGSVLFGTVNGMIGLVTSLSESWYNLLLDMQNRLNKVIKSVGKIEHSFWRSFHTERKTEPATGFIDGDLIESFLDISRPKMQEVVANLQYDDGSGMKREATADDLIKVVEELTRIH
# T2 sequence (Q13422 whole entry, the tested form may be a part): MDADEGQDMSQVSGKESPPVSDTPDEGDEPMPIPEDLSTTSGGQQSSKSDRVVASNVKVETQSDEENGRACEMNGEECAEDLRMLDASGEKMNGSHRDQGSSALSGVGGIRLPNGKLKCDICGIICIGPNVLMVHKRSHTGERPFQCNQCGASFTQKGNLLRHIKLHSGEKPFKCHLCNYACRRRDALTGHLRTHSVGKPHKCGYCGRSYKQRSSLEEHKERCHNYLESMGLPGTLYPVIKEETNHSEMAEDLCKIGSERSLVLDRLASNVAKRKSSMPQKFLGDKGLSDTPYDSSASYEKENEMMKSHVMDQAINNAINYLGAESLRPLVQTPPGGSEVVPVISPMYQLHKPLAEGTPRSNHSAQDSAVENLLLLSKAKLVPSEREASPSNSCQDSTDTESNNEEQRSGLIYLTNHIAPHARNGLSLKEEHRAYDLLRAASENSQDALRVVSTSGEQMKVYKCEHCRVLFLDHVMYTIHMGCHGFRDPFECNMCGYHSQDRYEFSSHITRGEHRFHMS
# Method: Assay 2. IKZF1 Degradation Assay, HiBiT Method
# Selected compounds of this disclosure were tested in an IKZF1 degradation assay using the HiBiT Method.
# RPMI no-phenol red medium and fetal bovine serum (FBS) were purchased from Gibco (Grand Island, NY, USA). Nano-Glo® HiBiT Lytic Assay System was purchased from Promega (Madison, WI, USA). […] Cell culture flasks and 384-well microplates were acquired from VWR (Radnor, PA, USA).
# IKZF1 degradation was determined based on quantification of luminescent signal using Nano-Glo® HiBiT Lytic Assay kit. […] NCIH929 cells expressing HiBiT-tagged IKZF1 were added into 384-well plates in RPMI medium containing 10% FBS and 0.05 mM 2-mercaptoethanol at a cell density of 15000 cells per well. The plates were kept at 37° C. with 5% CO2 for 6 hours. Cells treated in the absence of the test compound were the negative control and wells containing media only were the positive control. After 6-hour incubation, Nano-Glo® HiBiT Lytic Assay reagents were added to the designated wells. Luminescence was acquired on EnVision® Multilabel Reader (PerkinElmer, Santa Clara, CA, USA).
DC50 (IRAK4) [µM],DC50 (IKZF1) [µM],SMILES
< 0.01,> 10,"Cc1cnc2c(NC(=O)c3cn4cc([C@H]5CC[C@H](CN6CCC(c7ccc(OC8CCC(=O)NC8=O)cc7)CC6)CC5)nc4cc3OC(C)C)cnn2c1 (stereo partly shown) [Example 52, 2-[4-[[4-[4-[(2,6-dioxo-3-piperidyl)oxy]phenyl]-1-piperidyl]methyl]cyclohexyl]-7-isopropoxy-N-(6-methylpyrazolo[1,5-a]pyrimidin-3-yl)imidazo[1,2-a]pyridine-6-carboxamide]"
0.01 to 0.1,> 10,"CC(C)Oc1cc2nc([C@H]3CC[C@H](CN4CCC(c5cc(F)c(C6CCC(=O)NC6=O)cc5F)C(F)(F)C4)CC3)cn2cc1C(=O)Nc1cnn2cccnc12 (stereo partly shown) [Example 53, 2-[4-[[4-[4-(2,6-dioxo-3-piperidyl)-2,5-difluoro-phenyl]-3,3-difluoro-1-piperidyl]methyl]cyclohexyl]-7-isopropoxy-N-pyrazolo[1,5-a]pyrimidin-3-yl-imidazo[1,2-a]pyridine-6-carboxamide]"
< 0.01,> 10,"CC(C)Oc1cc2nn(C3CCN(C(=O)CN4CCC(c5ccc(NC6CCC(=O)NC6=O)cc5)CC4)CC3)cc2cc1C(=O)Nc1cnn2cccnc12 (stereo not shown) [Example 55, 2-(1-(2-(4-(4-((2,6-dioxopiperidin-3-yl)amino)phenyl)piperidin-1-yl)acetyl)piperidin-4-yl)-6-isopropoxy-N-(pyrazolo[1,5-a]pyrimidin-3-yl)-2H-indazole-5-carboxamide]"
0.01 to 0.1,> 10,"CC(C)Oc1cc2nc(C3CCN(C(=O)CN4CCC(c5ccc(C6CCC(=O)NC6=O)cc5)CC4)CC3)cn2cc1C(=O)Nc1cccc(C(F)F)n1 (stereo not shown) [Example 68, N-[6-(difluoromethyl)-2-pyridyl]-2-[1-[2-[4-[4-(2,6-dioxo-3-piperidyl)phenyl]-1-piperidyl]acetyl]-4-piperidyl]-7-isopropoxy-imidazo[1,2-a]pyridine-6-carboxamide]"
< 0.01,> 10,"CC(C)Oc1cc2nc(C3CCN(C(=O)CC4(O)CCN(c5ccc(NC6CCC(=O)NC6=O)cc5F)CC4)CC3)cn2cc1C(=O)Nc1cccc(C(F)F)n1 (stereo not shown) [Example 69, N-[6-(difluoromethyl)-2-pyridyl]-2-[1-[2-[1-[4-[(2,6-dioxo-3-piperidyl)amino]-2-fluoro-phenyl]-4-hydroxy-4-piperidyl]acetyl]-4-piperidyl]-7-isopropoxy-imidazo[1,2-a]pyridine-6-carboxamide]"
< 0.01,> 10,"CC(C)Oc1cc2nc(C3CCN(C(=O)CC4(O)CCN(c5cc(F)c(NC6CCC(=O)NC6=O)cc5F)CC4)CC3)cn2cc1C(=O)Nc1cccc(C(F)F)n1 (stereo not shown) [Example 70, N-[6-(difluoromethyl)-2-pyridyl]-2-[1-[2-[1-[4-[(2,6-dioxo-3-piperidyl)amino]-2,5-difluoro-phenyl]-4-hydroxy-4-piperidyl]acetyl]-4-piperidyl]-7-isopropoxy-imidazo[1,2-a]pyridine-6-carboxamide]"
0.01 to 0.1,> 10,"CC(C)Oc1cc2nc(C3CCN(C(=O)CC4(O)CCN(c5ccc(NC6CCC(=O)NC6=O)cc5)CC4)CC3)cn2cc1C(=O)Nc1cccc(C(F)F)n1 (stereo not shown) [Example 71, N-[6-(difluoromethyl)-2-pyridyl]-2-[1-[2-[1-[4-[(2,6-dioxo-3-piperidyl)amino]phenyl]-4-hydroxy-4-piperidyl]acetyl]-4-piperidyl]-7-isopropoxy-imidazo[1,2-a]pyridine-6-carboxamide]"
< 0.01,> 10,"CC(C)Oc1cc2nc(C3CCN(C(=O)CC4(O)CCN(c5ccc(NC6CCC(=O)NC6=O)cc5Cl)CC4)CC3)cn2cc1C(=O)Nc1cccc(C(F)F)n1 (stereo not shown) [Example 73, 2-[1-[2-[1-[2-chloro-4-[(2,6-dioxo-3-piperidyl)amino]phenyl]-4-hydroxy-4-piperidyl]acetyl]-4-piperidyl]-N-[6-(difluoromethyl)-2-pyridyl]-7-isopropoxy-imidazo[1,2-a]pyridine-6-carboxamide]"
0.01 to 0.1,> 10,"CC(C)Oc1cc2nc(C3CCN(C(=O)CC4CCN(c5ncc(NC6CCC(=O)NC6=O)cc5F)CC4)CC3)cn2cc1C(=O)Nc1cccc(C(F)F)n1 (stereo not shown) [Example 81, N-[6-(difluoromethyl)-2-pyridyl]-2-[1-[2-[1-[5-[(2,6-dioxo-3-piperidyl)amino]-3-fluoro-2-pyridyl]-4-piperidyl]acetyl]-4-piperidyl]-7-isopropoxy-imidazo[1,2-a]pyridine-6-carboxamide]"
< 0.01,> 10,"CC(C)Oc1cc2nc(C3CCN(C(=O)CN4CCC(c5ccc(C6CCC(=O)NC6=O)cc5)CC4)CC3)cn2cc1C(=O)Nc1cnn2cccnc12 (stereo not shown) [Example 87, 2-[1-[2-[4-[4-(2,6-dioxo-3-piperidyl)phenyl]-1-piperidyl]acetyl]-4-piperidyl]-7-isopropoxy-N-pyrazolo[1,5-a]pyrimidin-3-yl-imidazo[1,2-a]pyridine-6-carboxamide]"
0.01 to 0.1,> 10,"CC(C)Oc1cc2nc(C3CCN(CC(=O)N4CCC(c5ccc(C6CCC(=O)NC6=O)cc5)CC4)CC3)cn2cc1C(=O)Nc1cnn2cccnc12 (stereo not shown) [Example 96, 2-[1-[2-[4-[4-(2,6-dioxo-3-piperidyl)phenyl]-1-piperidyl]-2-oxo-ethyl]-4-piperidyl]-7-isopropoxy-N-pyrazolo[1,5-a]pyrimidin-3-yl-imidazo[1,2-a]pyridine-6-carboxamide]"
0.01 to 0.1,> 10,"CC(C)Oc1cc2nc(C3CCN(CC(=O)N4CCC(c5ccc(C6(F)CCC(=O)NC6=O)cc5)CC4)CC3)cn2cc1C(=O)Nc1cnn2cccnc12 (stereo not shown) [Example 98, 2-[1-[2-[4-[4-(3-fluoro-2,6-dioxo-3-piperidyl)phenyl]-1-piperidyl]-2-oxo-ethyl]-4-piperidyl]-7-isopropoxy-N-pyrazolo[1,5-a]pyrimidin-3-yl-imidazo[1,2-a]pyridine-6-carboxamide]"
< 0.01,> 10,"CC(C)Oc1cc2nc(C3CCN(CC(=O)N4CCC(c5ccc(NC6CCC(=O)NC6=O)cc5)CC4)CC3)cn2cc1C(=O)Nc1cnn2cccnc12 (stereo not shown) [Example 104, 2-[1-[2-[4-[4-[(2,6-dioxo-3-piperidyl)amino]phenyl]-1-piperidyl]-2-oxo-ethyl]-4-piperidyl]-7-isopropoxy-N-pyrazolo[1,5-a]pyrimidin-3-yl-imidazo[1,2-a]pyridine-6-carboxamide]"
0.01 to 0.1,> 10,"CC(C)Oc1cc2nc(C3CCN(CC(=O)N4CCC(c5ccc(NC6CCC(=O)NC6=O)cc5)CC4)CC3)cn2cc1C(=O)Nc1cccc(C(F)F)n1 (stereo not shown) [Example 105, N-[6-(difluoromethyl)-2-pyridyl]-2-[1-[2-[4-[4-[(2,6-dioxo-3-piperidyl)amino]phenyl]-1-piperidyl]-2-oxo-ethyl]-4-piperidyl]-7-isopropoxy-imidazo[1,2-a]pyridine-6-carboxamide]"
0.01 to 0.1,> 10,"CC(C)Oc1cc2nc(C3CCN(CC(=O)N4CCC(c5ccc(NC6CCC(=O)NC6=O)cc5)CC4)CC3)cn2cc1C(=O)Nc1ccn(C)n1 (stereo not shown) [Example 108, 2-[1-[2-[4-[4-[(2,6-dioxo-3-piperidyl)amino]phenyl]-1-piperidyl]-2-oxo-ethyl]-4-piperidyl]-7-isopropoxy-N-(1-methylpyrazol-3-yl)imidazo[1,2-a]pyridine-6-carboxamide]"
< 0.01,> 10,"CC(C)Oc1cc2nn([C@H]3CC[C@H](CN4CCC(c5ccc(OC6CCC(=O)NC6=O)cc5)CC4)CC3)cc2cc1C(=O)Nc1cccn(C2CC2)c1=O (stereo partly shown) [Example 113, N-(1-cyclopropyl-2-oxo-1,2-dihydropyridin-3-yl)-2-((1r,4r)-4-((4-(4-((2,6-dioxopiperidin-3-yl)oxy)phenyl)piperidin-1-yl)methyl)cyclohexyl)-6-isopropoxy-2H-indazole-5-carboxamide]"
0.01 to 0.1,> 10,"Cc1cnc2c(NC(=O)c3cc4cn([C@H]5CC[C@H](CN6CCC(c7ccc(C8CCC(=O)NC8=O)cc7F)CC6)CC5)nc4cc3OC(C)C)cnn2c1 (stereo partly shown) [Example 114, 2-((1r,4r)-4-((4-(4-(2,6-dioxopiperidin-3-yl)-2-fluorophenyl)piperidin-1-yl)methyl)cyclohexyl)-6-isopropoxy-N-(6-methylpyrazolo[1,5-a]pyrimidin-3-yl)-2H-indazole-5-carboxamide]"
